The values below come from ChEMBL document CHEMBL2407026, “11β-HSD1 inhibitors from Walsura cochinchinensis” (J Nat Prod, 2013).

In experiment [1] the target is 11-beta-hydroxysteroid dehydrogenase 1 (Mus musculus, UniProt P50172). Briefly: Inhibition of mouse microsomal 11beta-HSD1 overexpressed in HEK293 cells using [3H]-cortisone as substrate assessed as formation of [3H]-cortisol by scintillation proximity assay in presence of NADPH.
Experiment [2] concerns the target T1, 11-beta-hydroxysteroid dehydrogenase 1 (Homo sapiens, UniProt P28845). The experiment in a line: Inhibition of human microsomal 11beta-HSD1 overexpressed in HEK293 cells using [3H]-cortisone as substrate assessed as formation of [3H]-cortisol by scintillation proximity assay in presence of NADPH.
Target sequence in this assay (P28845 whole entry): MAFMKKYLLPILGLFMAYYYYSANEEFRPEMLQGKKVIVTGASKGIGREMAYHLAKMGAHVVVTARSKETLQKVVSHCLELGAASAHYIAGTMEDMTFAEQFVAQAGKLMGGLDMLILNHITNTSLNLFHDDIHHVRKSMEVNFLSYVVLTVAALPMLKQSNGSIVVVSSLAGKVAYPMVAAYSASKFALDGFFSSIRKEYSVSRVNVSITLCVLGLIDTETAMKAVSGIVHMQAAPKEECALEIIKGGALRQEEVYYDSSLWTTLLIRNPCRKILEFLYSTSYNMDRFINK
For experiment [3], the target named is 11-beta-hydroxysteroid dehydrogenase 1 (Mus musculus) (UniProt P50172). Briefly: Inhibition of mouse microsomal 11beta-HSD1 overexpressed in HEK293 cells using [3H]-cortisone as substrate assessed as formation of [3H]-cortisol at 10 uM by scintillation proximity assay in presence of NADPH relative to control.
Sequence of 11-beta-hydroxysteroid dehydrogenase 1 (Mus musculus) (P50172 whole entry, looked up): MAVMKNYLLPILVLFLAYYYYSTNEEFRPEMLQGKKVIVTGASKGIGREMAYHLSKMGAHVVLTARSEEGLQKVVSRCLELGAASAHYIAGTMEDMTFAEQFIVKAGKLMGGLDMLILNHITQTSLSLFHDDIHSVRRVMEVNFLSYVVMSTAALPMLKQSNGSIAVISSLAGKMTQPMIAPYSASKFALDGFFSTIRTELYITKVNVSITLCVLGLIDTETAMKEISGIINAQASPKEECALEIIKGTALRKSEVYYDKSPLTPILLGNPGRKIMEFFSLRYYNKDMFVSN
In experiment [4] the target is T1, 11-beta-hydroxysteroid dehydrogenase 1. Briefly: Inhibition of human microsomal 11beta-HSD1 overexpressed in HEK293 cells using [3H]-cortisone as substrate assessed as formation of [3H]-cortisol at 10 uM by scintillation proximity assay in presence of NADPH relative to control.
Target sequence in this assay (P28845 whole entry, looked up): as the sequence (P28845 whole entry) above

Each structure is given as a SMILES string.

Sequence of 11-beta-hydroxysteroid dehydrogenase 1 (Mus musculus, UniProt P50172) (P50172 whole entry): as the sequence (P50172 whole entry, looked up) above

On to `CC(C)(O)[C@@H](O)[C@H]1C[C@@H]([C@@H]2CC[C@]3(C)C4=CC[C@H]5C(C)(C)[C@@H](O)CC[C@]5(C)[C@H]4CC[C@@]23C)C(=O)O1`, for which the IC50 in experiment [1] was found to be 0.82 µM; in experiment [2], 3.2 µM. The inhibition in experiment [3] and in experiment [4] was above 60% throughout.

On to `CC(C)=CC(=O)[C@@H](O)[C@H](C)[C@@H]1CC[C@]2(C)C3=CC[C@H]4C(C)(C)[C@@H](O)CC[C@]4(C)[C@H]3C[C@@H](O)[C@@]12C`, for which the IC50 in experiment [1] is 1.15 µM; in experiment [2], 3.74 µM. For the same compound, the inhibition in experiment [3] and in experiment [4] was above 60% throughout.

Regarding `CCC(C)C(=O)O[C@@H]1C[C@H]2C(C)(C)C(=O)C=C[C@]2(C)[C@H]2[C@@H](OC(C)=O)C[C@]3(C)C(=CC(=O)[C@H]3c3ccoc3)[C@@]21C` (relative stereo), in experiment [2], the IC50 was determined as 11.4 µM. Moreover, the inhibition in experiment [4] was above 50%.

With `CC(C)=CC(=O)[C@@H](O)[C@H](C)[C@@H]1CC[C@]2(C)C3=CC[C@H]4C(C)(C)[C@H](O)CC[C@]4(C)[C@H]3C[C@@H](O)[C@@]12C`, the inhibition in experiment [3] and in experiment [4] was 45% in each case.
